Measured values: patent publication US20050009732A1, “Method of treatment and agents useful for same” (Medvet Science Pty Ltd., priority 2003, published 2005)
Starred links: 1 amine or outer side, 2 acyl side, 3 side chain; linkers in the order of their positions; H or OH if unused. Positions of bridges follow the written chain, without caps; N, C: chain ends. Non-standard residues stand in square brackets, D forms with d. Residues, ends and D or L forms follow the SMILES beside them. Chains are numbered I, II in the order given. Actinocin(9to1) = Cc1c2oc3c(C)ccc(C(=O)[*:1])c3nc-2c(C(=O)[*:2])c(N)c1=O; NMeV = CN[C@H](C(=O)O)C(C)C; Sar = CNCC(=O)O

Legend:
Type in all cases: cell-based, human
[1] = tested on: intracellular Ca2+ mobilization in MCF-7 cells; assay: Measurement of [Ca2+]i in Fluo-3 loaded MCF-7 cells; conditions: for effect on E2-induced rise of [Ca2+]i: pretreatment then E2 (DMS 10 μM 30 min; ICI 10 μM; BHQ 100 nM; EGTA 2 mM; 2-APB 75 μM); for effect on [Ca2+]i when added alone: S1P 100 nM, E2-BSA 1 μM
Procedure: The fluorescence of the cells was monitored at an excitation wavelength of 490 nm and an emission wavelength of 525 nm. Each recording was calibrated by determining the maximal uptake of calcium (Fmax) in the presence of 0.1% Triton X as well as the level of autofluorescence (Fmin), after quenching Fluo-3/AM fluorescence with 1 mM Mn2^+.

[2] = tested on: Erk1/2 phosphorylation in MCF-7 cells; assay: Erk1/2 phosphorylation by Western blotting in MCF-7 cells
Procedure: Cells were harvested and lysed by sonication in lysis buffer containing 50 mM Tris/HCl (pH 7.4), 10% glycerol, 0.5% Triton-X-100, 150 mM NaCl, 1 mM dithiothreitol, 2 mM Na3VO4, 10 mM NaF, 1 mM EDTA and protease inhibitors (Complete; Roche Molecular Biochemicals). Protein concentrations of the cell lysates were determined with a Bio-Rad Dc protein assay kit (Bio-Rad Laboratories, CA). Aliquots of cell lysates containing 30-50 μg of proteins were resolved by 12% SDS-PAGE and transferred to Hybond-P membranes (Amersham Biosciences, Inc.). The membranes were then probed with appropriate antibodies according to standard method as described previously (Pitson, S. M., 2000, supra). The immunocomplexes were detected with an enhanced chemiluminescence PLUS kit (Amersham Pharmacia Biosciences) and by using Typhoon 9410 Variable Mode Imager (Amersham Pharmacia Biotechnologies).

[3] = tested on: MCF-7 cells; assay: Focus formation assay in MCF-7 cells; conditions: 10 nM E2, 10-day culture
Procedure: MCF-7 cells were seeded into 24-well plastic tissue culture plates at a density of 1×10^5 cells/ml/well, and maintained in phenol-red free media containing 10% FCS until the cells reached confluent. The cells were then refed at 24 h before first treatment with or without 10 nM E2 and then every 2-3 days thereafter with 1% FCS medium. After 5, 10 and 14 days the cultures were photographed and number of foci were counted. For colony assay, cells (1×10^4) suspended in 2 ml of 0.36% agar (Becton Dickinson, Sparks, MD) with phenol-red free growth medium were added on a base layer of 0.72% agar containing culture medium as described previously (Xia, P., Gamble, J. R., Wang, L., Pitson, S. M., Moretti, P. A., Wattenberg, B. W., D'andrea, R. J., and Vadas, M. A. (2000) Curr. Biol., 10: 1527-1530). After 14 days of incubation, the colonies were stained with MTT and counted. All experiments were done at least three times using triplicates per experimental point. Average was assessed by counting the number of colonies under low magnification (×20) at four points on each well.

[4] = tested on: SK activity in MCF-7 cells; assay: SK activity assay in MCF-7 cells; conditions: for effect on E2-mediated SK activation: pretreatment (ICI 10 μM 1 h; PTX 50 ng/ml 16 h) then 10 nM E2
Procedure: (§1) Briefly, after desired treatments the cells were washed with ice-cold PBS, scraped from the culture dishes and homogenized in lysis buffer containing 20 mM Tris (pH 7.4), 20% glycerol, 1 mM DTT, 1 mM EDTA, 10 μM MgCl2, 1 mM Na3VO4, 15 mM NaF, 10 μg/ml leupeptin and aprotinin, 1 mM PMSF and 0.5 mM 4-deoxypyridoxine. After centrifugation at 13,000×g for 30 min, SK activity was measured by incubating the cytosolic fraction with 5 μM sphingosine dissolved in 0.1% Triton X-100 and [γ^32P]ATP (1 mM, 0.5 mCi/ml) for 30 min at 37° C. as described previously (Pitson et al, 2000, supra; Xia, P., 1998, supra). The enzyme activity was normalized by total protein concentration of each sample.

[5] = tested on: MCF-7 cells; assay: Cell growth assay (MTS) in MCF-7 cells; conditions: 10 nM E2, in the absence of serum
Procedure: To assess cell proliferation, we used the CellTiter 96 AQueous proliferation assay (Promega Corp.) that is based on metabolic conversion of a tetrazolium compound MTS to a colored product by living cells as described in the manufacturer's protocols. Cells (4×10^3 cell/well) were seeded in 4 to 6 replicates into 96-well plates and incubated at 37° C. in 5% CO2 with or without E2 (10 nM) in phenol-red free media for a desired time period. The medium was changed every 2-3 days. The absorbance intensity of the MTS product is directly proportional to the number of viable cells in culture when cell number is between 2000 and 200 000, otherwise the exponential dependence was determined. Total cell numbers were calculated based on calibration curves.

[6] = tested on: SK activity in MDA-MB-231 cells; assay: SK activity assay in MDA-MB-231 cells; conditions: 10 nM E2, 15 min or 6 hours
Procedure: as §1

## 17β-estrodiol [E2]
[1]; E2 1 nM
  time to maximal level of [Ca2+]i: 30 ± 10 s
[2]; 10 nM E2
  effect on Erk 1/2 activity: significant increase
[2]; 10 nM E2, basal levels by 60 min
  time of maximal Erk 1/2 activity: ≤ 15 min
[3]
  foci formation: able to form solid cell foci
[4]; MCF-7 cells pretreated with E2 for 16 h, pulsed with additional 10 nM E2
  SK activity after additional dose of E2: additive increase
[4]; MCF-7 cells, 10 nM E2, after 6 hours, remained more than 24 hours
  prolonged effect on SK activity: significant increase
[4]; MCF-7 cells, 10 nM E2, within 15 min
  maximum SK activity: 240±25 % of basal
[4]; MCF-7 cells, increasing doses, 15 min
  concentration at which the E2-induced SK activity reaches a maximum: 1 µM
[5]
  effect on cell growth: stimulated cell growth
[6]
  SK activity: No increased activity

## O=C(O)CN(CCOCCOCCN(CC(=O)O)CC(=O)O)CC(=O)O [EGTA]
[1]
  effect on E2-induced rise of [Ca2+]i: slightly decreased

## CCCCCCCCCCCCC/C=C/[C@@H](O)[C@@H](N)COP(=O)(O)O [S1P, sphingosine-1-phosphate]
[1]
  effect on [Ca2+]i when added alone: resulted in an increase

## Cc1c2oc3c(C)ccc(C(=O)N[C@@H]4C(=O)N[C@H](C(C)C)C(=O)N5CCC[C@H]5C(=O)N(C)CC(=O)N(C)[C@@H](C(C)C)C(=O)O[C@@H]4C)c3nc-2c(C(=O)N[C@@H]2C(=O)N[C@H](C(C)C)C(=O)N3CCC[C@H]3C(=O)N(C)CC(=O)N(C)[C@@H](C(C)C)C(=O)O[C@@H]2C)c(N)c1=O [actinomycin D] (I: T[dV]P[Sar][NMeV] / II: T[dV]P[Sar][NMeV]; ester I:1-I:C, II:1-II:C; linker I:N-II:N via Actinocin(9to1))
[4]; MCF-7 cells, 1 μM actinomycin D pretreatment 4 h, 10 nM E2
  effect on first peak of E2-induced SK activity: no overt effect
[4]; MCF-7 cells, 1 μM actinomycin D, 10 nM E2 prolonged time course
  effect on delayed E2-induced activation of SK: abrogated

## NCCOB(c1ccccc1)c1ccccc1 [2-APB, 2-Aminoethoxydiphenyl borate]
[1]
  effect on E2-induced rise of [Ca2+]i: unable to effectively abolish

## C[C@]12CC[C@@H]3c4ccc(O)cc4C[C@@H](CCCCCCCCC[S+]([O-])CCCC(F)(F)C(F)(F)F)[C@H]3[C@@H]1CC[C@@H]2O (stereo partly drawn) [ICI 182,780]
[1]
  effect on E2-induced rise of [Ca2+]i: not prevented
[4]; MCF-7 cells
  effect on E2-mediated SK activation: no influence

## 4-hydroxytamoxifen [OH-Tam]
[1]
  effect on E2-induced rise of [Ca2+]i: not prevented

## pertussis toxin
[4]; MCF-7 cells
  effect on E2-mediated SK activation: strongly abrogated

## CC/C(=C(\c1ccccc1)c1ccc(OCCN(C)C)cc1)c1ccccc1 [Tamoxifen]
[4]; MCF-7 cells
  effect on E2-mediated SK activation: no influence

## CCCCCCCCCCCCCC(=O)O[C@@H]1[C@@H](C)[C@@]2(O)[C@@H](C=C(CO)C[C@]3(O)C(=O)C(C)=C[C@@H]23)[C@@H]2C(C)(C)[C@]12OC(C)=O [PMA, phorbol 12-myristate 13-acetate]
[4]; PMA 100 ng/ml, 30 min, SK and empty-vector transfected MCF-7 cells
  increase in SK activity over basal levels: approximately 2 fold

## CC(C)(C)c1cc(O)ccc1O [BHQ, tert-butylhydroquinone]
[1]
  effect on E2-induced rise of [Ca2+]i: strongly reduced

## 17β-estrodiol-BSA [E2-BSA]
[1]
  effect on [Ca2+]i when added alone: same extent as E2

## COc1cccc(-c2cc(=O)c3ccccc3o2)c1N [PD098095]
[2]; 100 μM pretreatment 30 min, 10 nM E2
  effect on E2-promoted phosphorylation of Erk1/2: blocked
